These results are taken from ChEMBL document CHEMBL1201862, “PubChem BioAssay data set” (2004).

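Exposure lasted 48 hours, with cells grown in 96-well plates and compounds tested at five concentrations. Here, GI50 denotes the concentration required for 50% inhibition of growth.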 The source made the active and inactive calls. Cut-off read from the data, not from the text of the source: active = GI50 up to about 1.1 µM and inactive = higher. A value given as a limit tells only on which side of the number the result lay.

Holding throughout (assay): NCI anticancer screen, dose series, 48 h
Assay [1] deals with MDA-MB-231.
The subject of assay [2] is SN12C.
For assay [3], the system named is 786-0.
Assay [4] concerns HOP-92.
Assay [5] concerns OVCAR-4.
Assay [6] relates to SNB-19.
Assay [7] deals with HCC 2998.
Assay [8] concerns MCF7.
The subject of assay [9] is PC-3.
Assay [10] concerns SF-295.
The test system of assay [11] is KM12.
For assay [12], the system named is UACC-62.
Assay [13] concerns OVCAR-3.
Assay [14] concerns EKVX.
For assay [15], the system named is HCT-116.
The test system of assay [16] is SK-MEL-28.
For assay [17], the system named is U-251.
Assay [18] deals with NCI-H522.
In assay [19] the test system is DU-145.
For assay [20], the system named is UACC-257.

As to `COC(=O)c1c(C)c2c(c(C)c1O)OC(=O)c1c(C)cc(O)c(C=O)c1O2`, the GI50 in assay [1], in assay [2], in [3], in assay [4], in assay [5] and in assay [6] was > 100 µM (inactive) each time. In addition, the GI50 in assay [7] is > 100 µM (inactive); in assay [8] it was > 100 µM (inactive); in assay [9] it was > 100 µM (inactive); in assay [10], > 100 µM (inactive); in [11], > 100 µM (inactive); in assay [12], 45.3 µM (inactive). Further, the GI50 in assay [13], in assay [14], in assay [15], in assay [16], in assay [17] and in assay [18] was > 100 µM (inactive) in each case. Besides, the GI50 in [19] and in assay [20] was > 100 µM (inactive) in each case.

As for `CN1CCN(C2CC(=O)c3c(Cl)sc(Cl)c32)CC1` (stereo not drawn), the GI50 is 20 µM (inactive) in [1]; 13.2 µM (inactive) in assay [2]; 7.21 µM (inactive) in assay [3]; 10.4 µM (inactive) in [4]; 14.6 µM (inactive) in assay [5]; 30.7 µM (inactive) in [6]. Also, the GI50 in [7] is 8.87 µM (inactive); in assay [8], 4.99 µM (inactive); in assay [9], 29.4 µM (inactive); in assay [10], 21.4 µM (inactive); in [11] it was 10.8 µM (inactive); in assay [12] it was 16.3 µM (inactive). In addition, the GI50 in [13] is 16.3 µM (inactive); in assay [14], 23.9 µM (inactive); in assay [15], 6.92 µM (inactive); in assay [16] it was 7.57 µM (inactive); in assay [17] it was 11.3 µM (inactive); in assay [18] it was 4.8 µM (inactive). The GI50 was 12.6 µM (inactive) in assay [19] and 27.1 µM (inactive) in [20].

For the molecule `CC(=O)Oc1ccc2cc(Oc3ccccc3)c(=O)oc2c1`, the GI50 in [1] was > 100 µM (inactive); in [2], > 100 µM (inactive); in assay [3], > 100 µM (inactive); in assay [4], 62.7 µM (inactive); in assay [5], 76.9 µM (inactive); in assay [6] it was 93.5 µM (inactive). Also, the GI50 in assay [7] is > 100 µM (inactive); in assay [8] it was > 100 µM (inactive); in [9], > 100 µM (inactive); in [10] it was > 100 µM (inactive); in [11], > 100 µM (inactive); in assay [13], 46 µM (inactive). Also, the GI50 in assay [14] was > 100 µM (inactive); in [15] it was > 100 µM (inactive); in [16] it was > 100 µM (inactive); in assay [17], 69.7 µM (inactive); in assay [18], 30.5 µM (inactive); in [19], > 100 µM (inactive). Besides, in [20], the GI50 was > 100 µM (inactive).

With `Cc1ccc(/C=N\NC(=O)c2ccncc2)s1`, the GI50 in [1], in assay [2], in assay [3], in [4], in assay [5] and in [6] was > 100 µM (inactive) throughout. The GI50 in assay [7], in assay [8], in [9], in assay [10], in [11] and in assay [12] was > 100 µM (inactive) throughout. Also, the GI50 in assay [13], in assay [14], in assay [15], in assay [16], in assay [17] and in assay [18] was > 100 µM (inactive) each time. Also, the GI50 in assay [19] and in [20] was > 100 µM (inactive) each time.

As for `CC1=C(OC2OC(CO)C(O)C(O)C2O)C(=O)C[C@H]2C1=CC[C@@H]1[C@@]2(C)C(=O)C[C@]2(C)[C@@H]([C@@](C)(O)C(=O)CCC(C)(C)O)[C@H](O)C[C@@]12C` (stereo partly drawn), the GI50 in assay [1], in [2], in [3], in assay [4], in [5] and in assay [6] was > 100 µM (inactive) throughout. For the same molecule, the GI50 in [7], in [8], in assay [9], in assay [10], in [11] and in assay [12] was > 100 µM (inactive) in each case. Besides, the GI50 in [13], in [14], in assay [15], in [16], in assay [17] and in assay [18] was > 100 µM (inactive) throughout. For the same molecule, the GI50 in assay [19] and in [20] was > 100 µM (inactive) throughout.

On to `Cc1ccc2nc(Cl)c(/C=N/N3C(=O)/C(=C/Cc4ccco4)N=C3c3ccccc3)cc2c1`, for which the GI50 in assay [1] was 67.8 µM (inactive); in assay [2] it was 26.5 µM (inactive); in [3], 20.4 µM (inactive); in assay [4] it was 28.9 µM (inactive); in [5], 51.6 µM (inactive); in assay [6], 35.8 µM (inactive). For the same molecule, the GI50 in assay [7] is 28.6 µM (inactive); in assay [8], 40.3 µM (inactive); in assay [9] it was 61.4 µM (inactive); in [10], > 82.8 µM (inactive); in assay [11], 3.33 µM (inactive); in [12], 60.5 µM (inactive). Besides, the GI50 in assay [13] is 71.1 µM (inactive); in [14], 30.5 µM (inactive); in [15], 18.5 µM (inactive); in [16] it was 58.7 µM (inactive); in assay [17], 50.8 µM (inactive); in assay [18] it was 27.4 µM (inactive). The GI50 in [19] is 36.6 µM (inactive); in [20], 32.7 µM (inactive).

In the case of `O=[N+]([O-])c1ccc2nc3ccccc3cc2c1`, the GI50 in assay [1] was 2.55 µM (inactive); in [2], 1.96 µM (inactive); in assay [3], 2.38 µM (inactive); in assay [4], 3.28 µM (inactive); in assay [5], 2.48 µM (inactive); in assay [6] it was 2.99 µM (inactive). Besides, the GI50 in [7] was 1.63 µM (inactive); in [8], 2.39 µM (inactive); in assay [9], 1.95 µM (inactive); in assay [12], 1.19 µM (inactive); in assay [13], 0.342 µM (active); in [14] it was 5.31 µM (inactive). Further, the GI50 in assay [15] is 1.65 µM (inactive); in assay [16] it was 2.57 µM (inactive); in [17], 2.69 µM (inactive); in [18], 2.81 µM (inactive); in assay [19], 2.82 µM (inactive); in assay [20] it was 1.34 µM (inactive).

Take `Cc1ccc(NC(Nc2ccc(C)cc2C)=C(C(Cl)=C(Cl)Cl)[N+](=O)[O-])c(C)c1`: the GI50 in [1] was 15.5 µM (inactive); in assay [2] it was 14.7 µM (inactive); in assay [3], 16.1 µM (inactive); in assay [4], 12.4 µM (inactive); in assay [5] it was 15.7 µM (inactive); in assay [6], 16.2 µM (inactive). In addition, the GI50 was 18 µM (inactive) in assay [7]; 38.7 µM (inactive) in [8]; 12.4 µM (inactive) in assay [9]; 15.2 µM (inactive) in [11]; 14.2 µM (inactive) in [12]; 15.4 µM (inactive) in assay [13]. In addition, the GI50 in assay [14] was 15.1 µM (inactive); in assay [15], 13.7 µM (inactive); in assay [16] it was 19.9 µM (inactive); in assay [18], 11.1 µM (inactive); in assay [19], 14.7 µM (inactive); in assay [20], 15.9 µM (inactive).

As for `C[C@@]12C[C@@H](c3ccccc3O1)N1CCSC1=N2`, the GI50 in assay [1], in [2], in assay [3], in assay [4], in [5] and in assay [6] was > 100 µM (inactive) each time. Also, the GI50 in assay [7], in assay [8], in assay [9], in assay [10], in assay [11] and in [12] was > 100 µM (inactive) in each case. In addition, the GI50 in assay [13], in assay [14], in [15], in assay [16], in assay [17] and in [18] was > 100 µM (inactive) each time. For the same molecule, the GI50 in assay [19] and in assay [20] was > 100 µM (inactive) each time.

Turning to `CC(C)C1=CC23CCC4C(C)(C(=O)O)CCCC4(C)C2CC1C1C(=O)N(c2cccc(N4C(=O)C5C6CC7C8(C)CCCC(C)(C(=O)O)C8CCC7(C=C6C(C)C)C5C4=O)c2)C(=O)C13` (stereo not drawn), the GI50 in assay [1] is 14.8 µM (inactive); in assay [2], 13.3 µM (inactive); in assay [3], 32 µM (inactive); in [4] it was 23.4 µM (inactive); in [5] it was 24 µM (inactive); in [6], 3.02 µM (inactive). For the same molecule, the GI50 was 6.81 µM (inactive) in [7]; 4.38 µM (inactive) in assay [8]; 4.66 µM (inactive) in assay [9]; 2.75 µM (inactive) in [11]; 16.5 µM (inactive) in assay [12]; 13.1 µM (inactive) in [13]. Further, the GI50 in assay [14] is 6.46 µM (inactive); in [15], 9.57 µM (inactive); in assay [16] it was 9.35 µM (inactive); in [17] it was 3.24 µM (inactive); in [18], 14.2 µM (inactive); in assay [19], 10.8 µM (inactive).
